Test results from patent US20150292023A1, “Materials and Methods Related to NSAID Chemoprevention in Colorectal Cancer” (priority 2011, published 2015).
Read-outs that look alike come from different tables or passages of the source.

What was measured:
[1] = system: Msh2^flox/floxVpC^+/+ (LS/HNPCC) mice; assay: Kaplan-Meier survival of LS/HNPCC mice treated with NSAIDs in diet; type: in vivo, mouse
Protocol: (§1) Cohorts of equivalent gender Msh2^flox/floxVpC^+/+ mice were treated with NSAIDs including ASA that were mixed with powdered diet and administered ad libitum. VpC^+/+ (Msh2^++) mice were similarly examined to control for potentially confounding effects of continuous Cre expression in the intestine. Kaplan-Meier survival analyses were generated for each NSAID treatment (FIG. 2).
A mouse model where exon 12 of Msh2 is flanked by LoxP recombination sites (Msh2^flox/flox) was generated. […] When considering the utility of this mouse model it is important to note that while modern day LS/HNPCC largely occurs in the colon, it was originally described as a gastric cancer.
The endpoint for the chemopreventive analysis of NSAIDs on mouse tumorigenesis is survival. Assessment of tumor kinetics, treatment regimes and pathological changes during tumor development constitute a correlative quantitative database.

[2] = system: microsatellite instability (MSI) in intestinal tissues of LS/HNPCC mice; assay: MSI analysis of tissues by small pool PCR (comparative MSI, Bethesda Criteria); type: in vivo, mouse; conditions: for conversion of MSI to MSS (in words): intestinal compartment of treated mice; for comparative MSI-H proportion: intestinal tumor vs matched adjacent normal tissue, untreated 33%
Protocol: A MSI analysis on tissues from the ASA and NO-ASA treatment groups by small pool PCR (1-10 genomic equivalents) was performed to determine the distribution of novel alleles between constitutional DNA (Ear, E) as well as normal (N) and tumor (T) intestinal tissues. When multiple samples of each tissue were analyzed, the resulting profiles comprised a representational distribution of the intrinsic allelic diversity. Ear tissues from these mice were consistently MSS, with the major allele always flanked by a relatively unvarying pattern of alleles that arise from PCR amplification-artifacts. Normal and intestinal tissues from ASA and NO-ASA treated mice show variation in major allele sizes and distributions.
A comparative assessment of MSI status was made between intestinal tumors and their matched adjacent normal tissues by determining the absolute changes in microsatellite alterations between them. Comparative MSI provides a quantitative measure of the relative differences in instability between adjacent developmentally related normal and tumor tissues. The Bethesda Criteria for diagnostic microsatellite instability was used: MSS, no changes in microsatellite marker status; high microsatellite instability (MSI-H; ≧2 of 5 markers different).

[3] = system: MMR-deficient human colon tumor cells; assay: MSI suppression in MMR-defective cells; type: cell-based; conditions: for MSI suppression (in words): long-term exposure of MMR-defective cells
Excerpt: Inhibition of cyclooxygenase-1 (COX1) or COX2 activity that is involved in the production of inflammatory prostaglandins was, in the past, generally considered a mechanism for cancer chemoprevention by NSAIDs.

[4] = system: intestinal tumors of LS/HNPCC mice; assay: Tumor number and pathology following NSAID treatment; conditions: for numbers of tumors when sacrificed: untreated 1.90±1.02, statistically equivalent
[5] = system: SMC1a mRNA; conditions: intestinal tissue
Protocol: (§2) Groups of 12 mice were continuously treated (6 VpC^+/+ wild type and 6 Msh2^flox/floxVpC^+/+ LS/HNPCC mice) with each of the eight NSAIDs and the intestines were harvested after two months exposure. A 0.5 cm section of intestine 2.5 cm proximal of the cecum was harvested from each individually treated mouse. High quality mRNA and miRNA was prepared for expression array analysis. To reduce the possibility of day-to-day variation the hybridization of all samples was performed simultaneously as well as sequential expression analysis. Transcriptome expression data from both the mRNA and miRNA chips was analyzed.
(§3) Identifying functional and regulatory connectivity among the differentially regulated miRs and mRNAs was analyzed to begin to determine biological pathways and networks responsible for NSAID-mediated tumor chemoprevention,. A combination of tools were used to deconvolute network interactions, including the ToppGene, ToppCluster, and ToppMir tools.

[6] = system: miR-135a; conditions: intestinal tissue
Protocol: as §2, §3

[7] = system: miR-9; conditions: intestinal tissue
Protocol: as §2, §3

[8] = system: VpC^+/+ (wild type) mice
Protocol: as §1

[9] = system: LS/HNPCC patients; conditions: cited from earlier work; for decrease in the rate of tumor formation / tumor incidence: long-term aspirin exposure (benefit after 5 yrs) vs placebo-treated cohort

nitric oxide-donating acetylsalicylic acid [NO-ASA]
mean survival ([1]; 72 mg/kg NO-ASA in diet): 403 days | effect on survival (in words) ([1]; LS/HNPCC mice vs untreated): suppressed tumorigenesis and increased survival | conversion of MSI to MSS (in words) [2]: at least partially converted MSI to MSS | comparative MSI-H proportion [2]: 20% | dose suppressing MSI, fold lower than ASA ([3]; relative to ASA): 300-3000 fold | numbers of tumors when sacrificed [4]: 1.78±1.25

COc1ccc2cc([C@H](C)C(=O)O)ccc2c1 [Naproxen, naproxen]
mean survival ([1]; 166 mg/kg naproxen in diet): 545 days | mean survival ([1]; 331 mg/kg naproxen in diet): 569 days | effect on survival (in words) ([1]; LS/HNPCC mice vs untreated): nearly double the life span of untreated animals | increase in life span (FIG. 2 grouping) ([1]; representative survival data, vs untreated LS/HNPCC mice): ~100% | SMC1a mRNA expression (in words) [5]: enhanced | miR-135a expression (in words) [6]: down-regulated | miR-9 expression (in words) [7]: down-regulated | numbers of tumors when sacrificed [4]: 1.58±0.67

CC1=C(CC(=O)O)c2cc(F)ccc2/C1=C\c1ccc(S(C)(=O)=O)cc1 [Sulindac Sulfone, sulindac sulfone]
effect on survival (in words) ([1]; LS/HNPCC mice vs untreated): No Effect

NO-sulindac sulphone
effect on survival (in words) ([1]; LS/HNPCC mice vs untreated): No Effect

nitric oxide-donating sulindac [NO-Sulindac]
effect on survival (in words) ([1]; mouse, in vivo): increased survival similar to ASA

CC1=C(CC(=O)O)c2cc(F)ccc2/C1=C\c1ccc([S+](C)[O-])cc1 (centres unmarked) [Sulindac, sulindac]
effect on survival (in words) ([1]; LS/HNPCC mice vs untreated): increased survival similar to ASA | tumor induction in wild type controls (in words) ([8]; mouse, in vivo): induces tumors in the wild type controls | survival of wild type mice (in words) ([8]; wild type controls, FIG. 2B): significant reduce the survival of the wild type mice | MSI suppression (in words) [3]: suppressed MSI | number of cecal cancers (in words) [4]: increases the number of cecal cancers

CC(=O)Oc1ccccc1C(=O)O [ASA, Acetylsalicylic acid]
mean survival ([1]; 400 mg/kg ASA in diet, untreated median 333 days, p<0.001): 393 days | increase in lifespan ([1]; 400 mg/kg ASA vs untreated): 18% | effect on survival (in words) ([1]; LS/HNPCC mice vs untreated): suppressed tumorigenesis and increased survival | conversion of MSI to MSS (in words) [2]: at least partially converted MSI to MSS | comparative MSI-H proportion [2]: 22% | MSI suppression (in words) [3]: suppressed MSI | Hazard Ratio (HR) ([9]; 600 mg aspirin daily vs placebo, tumors by yearly colonoscopy, p=0.02): 0.61(0.1 9, 0.86) | decrease in the rate of tumor formation / tumor incidence [9]: ≥ 2 fold | decrease in the rate of tumor formation / tumor incidence ([9]; listed as aspirin): at least 2 fold | numbers of tumors when sacrificed [4]: 1.68±0.72
